Measured values published in article PMC12675575, “A BRET biosensor for measuring uncompetitive engagement of PRMT5 complexes in cells” (Nature Communications, 2025).
Where “and” joins values, the source holds several entries; their conditions need not be identical. Equal values may be shown once.

Experiments:
MAT2A [1] = experiment: BRET probe sensitivity to MAT2A inhibition (Compound A) in live HEK293 cells expressing NLuc-PRMT5; assay type: cell-based; conditions: Log([Compound A]), 37 °C
MAT2A [2] = experiment: as above; assay type: cell-based; conditions: for normalized BRET signal (Figure S3D) / Normalized BRET probe signal: Log([Compound A]); for normalized BRET signal (Figure S3D): replicates; for Normalized BRET probe signal: 37 °C
Experimental: To measure BRET probe sensitivity to both MAT2A inhibition and exogenous MTA in live cells, HEK293 cells were pre-treated with 30 nM CBH-002 and incubated at 37 °C and 5% CO2 for 2 h. For MAT2A inhibition, a 20 µM, 3-fold, 11 pt titration series of Compound A (Selleckchem) was added to wells. Cells were incubated either at 37 °C (Fig. 3D) or room temperature (Fig. S3D). Data were normalized using Eq. (2), where BRETMIN = instrument background (no CBH-002), and BRETMAX = 2 h vehicle treatment, and fit curves were generated using Eq. (1). For MTA sensitivity cells were treated with a 1 mM, 11 pt, 2-fold series of MTA (Sigma) and cells were incubated at room temperature for 2 h, reading in 15 min intervals. Data were normalized using Eq. (2), where BRETMIN = instrument background (no CBH-002), and BRETMAX = 2 h + vehicle treatment. Data were fit with Eq. (1).

[3] = molecular target: NLuc-PRMT5 co-expressed with WDR77 (Homo sapiens, UniProt O14744); experiment: Compound EC50 titrations against MTA, NanoBRET in HEK293 (NLuc-PRMT5 + WDR77), with global Gaddum/Schild or Morrison fits
Sequence of NLuc-PRMT5 co-expressed with WDR77 (O14744 whole entry): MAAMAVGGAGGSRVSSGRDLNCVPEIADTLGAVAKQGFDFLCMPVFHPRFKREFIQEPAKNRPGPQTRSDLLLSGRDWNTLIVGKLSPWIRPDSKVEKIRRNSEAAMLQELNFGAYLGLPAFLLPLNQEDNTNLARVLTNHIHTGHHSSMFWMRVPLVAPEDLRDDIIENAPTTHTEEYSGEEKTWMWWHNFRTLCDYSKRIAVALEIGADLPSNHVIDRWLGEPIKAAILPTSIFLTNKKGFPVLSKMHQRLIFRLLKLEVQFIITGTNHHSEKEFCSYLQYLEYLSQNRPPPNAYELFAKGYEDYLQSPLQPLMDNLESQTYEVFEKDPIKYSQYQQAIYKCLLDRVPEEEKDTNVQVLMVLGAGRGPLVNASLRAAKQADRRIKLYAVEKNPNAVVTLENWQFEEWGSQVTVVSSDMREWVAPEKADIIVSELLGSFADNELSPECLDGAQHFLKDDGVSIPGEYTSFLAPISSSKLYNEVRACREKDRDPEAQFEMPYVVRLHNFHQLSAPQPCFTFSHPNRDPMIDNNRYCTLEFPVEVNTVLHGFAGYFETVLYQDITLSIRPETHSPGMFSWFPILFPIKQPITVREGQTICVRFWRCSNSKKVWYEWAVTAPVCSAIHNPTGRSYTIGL
Sequence of NLuc-PRMT5 co-expressed with WDR77 (Q9BQA1 whole entry partner): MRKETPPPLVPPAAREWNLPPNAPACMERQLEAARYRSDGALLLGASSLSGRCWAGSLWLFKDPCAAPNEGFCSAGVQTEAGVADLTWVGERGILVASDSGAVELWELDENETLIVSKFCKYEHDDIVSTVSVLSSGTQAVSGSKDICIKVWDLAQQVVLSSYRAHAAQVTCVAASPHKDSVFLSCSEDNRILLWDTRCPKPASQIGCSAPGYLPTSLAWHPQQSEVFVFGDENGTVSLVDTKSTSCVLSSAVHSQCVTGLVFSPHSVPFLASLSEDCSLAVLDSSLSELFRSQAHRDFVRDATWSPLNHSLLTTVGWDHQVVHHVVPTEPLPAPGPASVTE
Experimental: MTA (Sigma) was prepared at 100× in 100% DMSO and diluted to 10× in Opti-MEM. Inhibitors were run as 11 pt, 3-fold dilution curves and MTA as a seven point, 3-fold dilution curve starting at 100 μM. Cells were incubated for 2 h at 37 °C and 5% CO2 prior to BRET measurements. Data was normalized using Eq. (2) where BRETMIN = saturating compound + maximum [MTA], and BRETMAX = BRET signal under vehicle conditions. Curves were fit using Eq. (3), and EC50 values were plotted against MTA concentration to determine the linear range of MTA detection.

Z-138 cells = system: Z-138 cells; set-up: method as in ref 2,3 (a number printed in a supplementary file, which may have a reference list of its own: not looked up in the article's list); conditions: read-out: Proliferation (nM), IC50; cited from earlier work
PRMT5:MEP50 = system: PRMT5:MEP50; set-up: method as in ref 1 (a number printed in a supplementary file, which may have a reference list of its own: not looked up in the article's list); conditions: HTRF, H4R3 monomethylation; read-out: Biochemical (nM), IC50; cited from earlier work

SMILES: Nc1nc(=O)n(-c2ccccc2Cl)c2nc(C(F)(F)F)ccc12 [Compound A]
- Normalized BRET probe signal (MAT2A [1]; uM 0.82, Time (h) 6): 54.59 and 55.03 and 49.39
- Normalized BRET probe signal (MAT2A [1]; uM 1.30, Time (h) 2): 83.43 and 85.48 and 85.77
- Normalized BRET probe signal (MAT2A [1]; uM 1.30, Time (h) 5): 54.62 and 56.32 and 57.46
- Normalized BRET probe signal (MAT2A [1]; uM -1.56, Time (h) 4): 64.62 and 64.77 and 65.94
- normalized BRET signal (Figure S3D) (MAT2A [2]; uM 0.35, Time 0 min): 102.31 and 101.27 and 102.49
- normalized BRET signal (Figure S3D) (MAT2A [2]; uM 0.35, Time 15 min): 102.22 and 100.75 and 100.92
- normalized BRET signal (Figure S3D) (MAT2A [2]; uM 0.35, Time 30 min): 98.94 and 102.77 and 99.88
- normalized BRET signal (Figure S3D) (MAT2A [2]; uM 0.35, Time 45 min): 101.50 and 99.61 and 97.49
- normalized BRET signal (Figure S3D) (MAT2A [2]; uM 0.35, Time 60 min): 100.91 and 99.04 and 97.98
- normalized BRET signal (Figure S3D) (MAT2A [2]; uM 0.35, Time 75 min): 100.10 and 98.57 and 96.49
- normalized BRET signal (Figure S3D) (MAT2A [2]; uM 0.35, Time 90 min): 99.02 and 98.37 and 97.43
- normalized BRET signal (Figure S3D) (MAT2A [2]; uM 0.35, Time 120 min): 96.41 and 97.99 and 95.04
- normalized BRET signal (Figure S3D) (MAT2A [2]; uM 0.82, Time 0 min): 101.24 and 100.09 and 103.66
- normalized BRET signal (Figure S3D) (MAT2A [2]; uM 0.82, Time 15 min): 101.29 and 99.47 and 102.07
- normalized BRET signal (Figure S3D) (MAT2A [2]; uM 0.82, Time 30 min): 99.28 (2×) and 100.85
- normalized BRET signal (Figure S3D) (MAT2A [2]; uM 0.82, Time 45 min): 99.67 and 98.96 and 100.10
- normalized BRET signal (Figure S3D) (MAT2A [2]; uM 0.82, Time 60 min): 100.24 and 98.62 and 99.55
- normalized BRET signal (Figure S3D) (MAT2A [2]; uM 0.82, Time 75 min): 100.92 and 98.42 and 98.44
- normalized BRET signal (Figure S3D) (MAT2A [2]; uM 0.82, Time 90 min): 100.92 and 98.07 and 97.73
- normalized BRET signal (Figure S3D) (MAT2A [2]; uM 0.82, Time 120 min): 98.05 and 98.30 and 97.43
- Normalized BRET probe signal (MAT2A [2]; uM 0.82, Time (h) 2): 80.32 and 82.63 and 81.99
- Normalized BRET probe signal (MAT2A [2]; uM 0.82, Time (h) 4): 62.79
- Normalized BRET probe signal (MAT2A [2]; uM 0.82, Time (h) 5): 55.09 and 56.94 and 59.00
- normalized BRET signal (Figure S3D) (MAT2A [2]; uM 1.30, Time 0 min): 100.00
- normalized BRET signal (Figure S3D) (MAT2A [2]; uM 1.30, Time 15 min): 100.00
- normalized BRET signal (Figure S3D) (MAT2A [2]; uM 1.30, Time 30 min): 100.00
- normalized BRET signal (Figure S3D) (MAT2A [2]; uM 1.30, Time 45 min): 100.00
- normalized BRET signal (Figure S3D) (MAT2A [2]; uM 1.30, Time 60 min): 100.00
- normalized BRET signal (Figure S3D) (MAT2A [2]; uM 1.30, Time 75 min): 100.00
- normalized BRET signal (Figure S3D) (MAT2A [2]; uM 1.30, Time 90 min): 100.00
- normalized BRET signal (Figure S3D) (MAT2A [2]; uM 1.30, Time 120 min): 100.00
- Normalized BRET probe signal (MAT2A [2]; uM 1.30, Time (h) 3): 81.83 and 81.36 and 78.63
- Normalized BRET probe signal (MAT2A [2]; uM 1.30, Time (h) 4): 64.66 and 66.78 and 66.04
- Normalized BRET probe signal (MAT2A [2]; uM 1.30, Time (h) 6): 52.27 and 54.37 and 54.09
- normalized BRET signal (Figure S3D) (MAT2A [2]; uM 1.30, Time […]): 100.00
- normalized BRET signal (Figure S3D) (MAT2A [2]; uM -0.13, Time 0 min): 102.61
- normalized BRET signal (Figure S3D) (MAT2A [2]; uM -0.13, Time 30 min): 99.28
- normalized BRET signal (Figure S3D) (MAT2A [2]; uM -0.13, Time 45 min): 99.89 and 99.35 and 98.26
- normalized BRET signal (Figure S3D) (MAT2A [2]; uM -0.13, Time 60 min): 99.27 and 98.76 and 97.87
- normalized BRET signal (Figure S3D) (MAT2A [2]; uM -0.13, Time 75 min): 99.29 and 98.14 and 96.57
- normalized BRET signal (Figure S3D) (MAT2A [2]; uM -0.13, Time 90 min): 99.41 and 97.78 and 96.89
- normalized BRET signal (Figure S3D) (MAT2A [2]; uM -0.13, Time 120 min): 97.11 and 97.69
- Normalized BRET probe signal (MAT2A [2]; uM -1.56, Time (h) 2): 86.27 and 89.51 and 86.94
- Normalized BRET probe signal (MAT2A [2]; uM -1.56, Time (h) 3): 78.52 and 78.24 and 76.36
- Normalized BRET probe signal (MAT2A [2]; uM -1.56, Time (h) 5): 56.30 and 59.42 and 61.19
- Normalized BRET probe signal (MAT2A [2]; uM -1.56, Time (h) 6): 57.39 and 58.36 and 56.05
- Normalized BRET probe signal (MAT2A [2]; uM -2.04, Time (h) 2): 91.78 and 93.83 and 92.35
- Normalized BRET probe signal (MAT2A [2]; uM -2.04, Time (h) 3): 84.09 and 82.20 and 80.64
- Normalized BRET probe signal (MAT2A [2]; uM -2.04, Time (h) 4): 71.87 and 73.84 and 72.51
- Normalized BRET probe signal (MAT2A [2]; uM -2.04, Time (h) 5): 61.86 and 65.39 and 67.66
- Normalized BRET probe signal (MAT2A [2]; uM -2.04, Time (h) 6): 67.16 and 64.98 and 63.98
- Normalized BRET probe signal (MAT2A [2]; uM -2.52, Time (h) 2): 97.92 and 101.07 and 97.78
- Normalized BRET probe signal (MAT2A [2]; uM -2.52, Time (h) 3): 92.42 and 90.78 and 89.69
- Normalized BRET probe signal (MAT2A [2]; uM -2.52, Time (h) 4): 81.28 and 83.71 and 82.94
- Normalized BRET probe signal (MAT2A [2]; uM -2.52, Time (h) 5): 74.64 and 76.80 and 79.27
- Normalized BRET probe signal (MAT2A [2]; uM -2.52, Time (h) 6): 75.70 and 75.54 and 75.07
- Normalized BRET probe signal (MAT2A [2]; uM -2.99, Time (h) 2): 99.19 and 102.22 and 99.77
- Normalized BRET probe signal (MAT2A [2]; uM -2.99, Time (h) 3): 95.84 and 93.35 and 94.20
- Normalized BRET probe signal (MAT2A [2]; uM -2.99, Time (h) 4): 94.50 and 92.51 and 93.76
- Normalized BRET probe signal (MAT2A [2]; uM -2.99, Time (h) 5): 87.56 and 91.04 and 95.19
- Normalized BRET probe signal (MAT2A [2]; uM -2.99, Time (h) 6): 89.25 and 91.90 and 87.75
- Normalized BRET probe signal (MAT2A [2]; uM -3.47, Time (h) 2): 98.78 and 102.46 and 100.43
- Normalized BRET probe signal (MAT2A [2]; uM -3.47, Time (h) 3): 98.17 and 97.18 and 96.26
- Normalized BRET probe signal (MAT2A [2]; uM -3.47, Time (h) 4): 96.70 and 95.88 and 97.43
- Normalized BRET probe signal (MAT2A [2]; uM -3.47, Time (h) 5): 93.94 and 96.00 and 96.68
- Normalized BRET probe signal (MAT2A [2]; uM -3.47, Time (h) 6): 97.50 and 96.53 and 90.92
- Time to plateau of BRET inhibition (MAT2A [2]; live cells, pre-equilibrated CBH-002, 37 °C): ~ 5 h
- Effect on CBH-002 binding at room temperature (MAT2A [2]; room temperature, 2-h interval): did not impact CBH-002 binding

SMILES: O=C(NC[C@H](O)CN1CCc2ccccc2C1)c1cc(NC2COC2)ncn1 [EPZ015666]
- Schild slope ([3]; Global Gaddum/Schild EC50 shift fit, MTA titration, HEK293): 1.3 (1.15 - 1.47)
- Hill slope ([3]; [MTA] 0 μM, HEK293): 0.81
- Hill slope ([3]; [MTA] 11.11 μM, HEK293): 0.77
- Hill slope ([3]; [MTA] 100 μM, HEK293): 0.72
- Hill slope ([3]; [MTA] 300 μM, HEK293): 0.87
- Hill slope (Global/Schild fit) ([3]; constant across [MTA], constrained to 1 for PF06939999 and GSK3326595): 0.75 (0.73 - 0.78)
- IC50 (Z-138 cells): 62 nM

SMILES: CC(=O)N1CCC(Nc2cc(C(=O)NC[C@H](O)CN3CCc4ccccc4C3)ncn2)CC1 [GSK3326595]
- IC50 (PRMT5:MEP50): 6.2 nM
